Tests used:
[1] = aqueous solubility; format: physicochemical; settings: relative to those of the prior art; no test described
[2] = crystalline monohydrate form; background statement; cited from earlier work
[3] = as stated in U.S. Pat. No. 5,312,925; cited from earlier work

water solubility relative to the prior art forms [1] | SMILES | aqueous solubility [2] | hygroscopic stability [3]
better water solubility | Cl.O=C1Cc2cc(CCN3CCN(c4nsc5ccccc45)CC3)c(Cl)cc2N1 [amorphous ziprasidone hydrochloride, 5-[2-[4-(1,2-benzisothiazol-3-yl)-1-piperazinyl]ethyl]-6-chloro-1,3-dihydro-2H-indol-2-one hydrochloride] | – | –
– | Cl.O=C1Cc2cc(CCN3CCN(c4nsc5ccccc45)CC3)c(Cl)cc2N1 [ziprasidone hydrochloride monohydrate, 5-[2-[4-(1,2-benzisothiazol-3-yl)-1-piperazinyl]ethyl]-6-chloro-1,3-dihydro-2H-indol-2-one hydrochloride] | very low | hygroscopically stable

— patent US7939662B2, “Amorphous ziprasidone hydrochloride (5-[2-[4-(1,2-benzisothiazol-3-yl)-1-piperazinyl]ethyl]-6-chloro-1,3-dihydro-2H-indol-2-one hydrochloride) and processes to produce the same” (Apotex Pharmachem Inc., priority 2004, dated 2011)
